From US9920030B2 (priority 2006, dated 2018)
Like-named read-outs stand apart in the source and are kept apart here.

Columns and labels:
Type in all cases: in vivo
[1] = system: Plasmopara vilicola (the causal agent of grape downy mildew); assay: Test A: grape downy mildew, test suspension sprayed on grape seedlings after inoculation, visual disease rating
Outline: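 Curative spray: spores applied first, plants kept 24 h in saturated air at 20 °C and dried before treatment, then 5 days at 20 °C plus 24 h saturated. Suspension: acetone (3% of volume) in 1:1 acetone/water, 250 ppm Trem 014, sprayed to run-off (200 ppm ≈ 500 g/ha); visual 0–100 control rating.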

[2] = system: Phytophthora infestans (the causal agent of tomato late blight); assay: whole plant or invertebrate
[3] = system: Phytophthora infestans (the causal agent of tomato late blight); assay: whole plant or invertebrate; remark: listed apart in the source
[4] = compounds without asterisk (application rate not given), 100 = 100% disease control, 0 = no control relative to the controls
[5] = Plasmopara, 144 h, ** tested at l0 ppm, read-out: Percent Disease Control, Test A
[6] = Phytophthora infestans, 144 h, read-out: Percent Disease Control, Test B
[7] = Phytophthora infestans, 96 h, read-out: Percent Disease Control, Test C

Row | Molecule | Percent Disease Control, Test A ([1]; * tested at 40 ppm) [%] | Percent Disease Control, Test B ([2]; * tested at 40 ppm) [%] | Percent Disease Control, Test C ([3]; * tested at 40 ppm) [%] | Percent Disease Control, Test A [1, 4] [%] | Percent Disease Control, Test B [2, 4] [%] | Percent Disease Control, Test C [3, 4] [%] | further results
1 | Cc1cc(C(F)(F)F)nn1CC(=O)N1CCC(c2nc(C3=NOC4(CCCC(c5ccccc5)C4)C3)cs2)CC1 (mixture of isomers) [Compound 171] | 99 | 100 | 98 | – | – | – | –
2 | Cc1cc(C(F)(F)F)nn1CC(=O)N1CCC(c2nc(C3=NOC4(CCC(C)(c5ccccc5)CC4)C3)cs2)CC1 (single isomer, unassigned) [Compound 186] | 95 | 100 | 86 | – | – | – | –
3 | CC(=O)N1N=C(c2csc(C3CCN(C(=O)Cn4nc(C(F)(F)F)cc4C)CC3)n2)OC1(C)c1ccccc1 (stereo not drawn) [Compound 182] | – | – | – | 99 | 100 | 97 | –
4 | Cc1cc(C(F)(F)F)nn1CC(=O)N1CCC(c2nc(C3=NOC(n4oc(=O)n(C(C)C)c4=O)C3)cs2)CC1 (stereo not drawn) [Compound 244] | 98 | 100 | 99 | – | – | – | –
5 | Cc1cc(C(F)(F)F)nn1CC(=O)N1CCC(c2nc(C3=NOC(C(=O)N4CCOCC4)C3)cs2)CC1 (stereo not drawn) [Compound 226] | – | – | – | 83 | 100 | 99 | –
6 | Cc1cc(C(F)(F)F)nn1CC(=O)N1CCC(c2nc(C3=NOC(N4Cc5ccccc5C4=O)C3)cs2)CC1 (stereo not drawn) [Compound 233] | 100 | 100 | 100 | – | – | – | –
7 | Cc1cc(C(F)(F)F)nn1CC(=O)N1CCC(c2nc(-c3ccc(C(C)C)cc3)cs2)CC1 [Compound 273] | – | – | – | 100 | 100 | 90 | –
8 | Cc1cc(C(F)(F)F)nn1CC(=O)N1CCC(c2nc(-c3ccc(Oc4ccccc4)cc3)cs2)CC1 [Compound 72] | – | – | – | 72 | 100 | 52 | –
9 | Cc1cc(C(F)(F)F)nn1CC(=O)N1CCC(c2nc(C3=NOC4(CCCc5ccccc54)C3)cs2)CC1 (stereo not drawn) [Compound 37, 1-[4-[4-(3′,4′-dihydrospiro[isoxazole-5(4H), 1′,(2′H)-naphthalen]-3-yl)-2-thiazolyl]-1-piperidinyl]-2-[5-methyl-3-(trifluoromethyl)-1H-pyrazol-1-yl]ethanone] | 100 | 100 | 99 | – | – | – | –
10 | COC(=O)c1ccc(-c2csc(C3CCN(C(=O)Cn4nc(C(F)(F)F)cc4C)CC3)n2)cc1 [Compound 270] | – | – | – | 99 | 83 | 0 | –
11 | Cc1cc(C(F)(F)F)nn1CC(=O)N1CCC(c2nc(C3=NCC(c4ccccc4)O3)cs2)CC1 (stereo not drawn) [Compound 50] | – | – | – | 0 | 100 | 99 | –
12 | Cc1cc(C(F)(F)F)nn1CC(=O)N1CCC(c2nc(-c3nc4ccccc4s3)cs2)CC1 [Compound 43] | – | – | – | 0 | 43 | 0 | –
13 | Cc1cc(C(F)(F)F)nn1CC(=O)N1CCC(c2nc(C3=NOC(C#N)C3)cs2)CC1 (stereo not drawn) [Compound 66] | – | – | – | 48 | 63 | 73 | –
14 | COC1ON=C(c2csc(C3CCN(C(=O)Cn4nc(C(F)(F)F)cc4C)CC3)n2)CC1c1ccccc1 (stereo not drawn) [Compound 81] | – | – | – | 93 | 92 | 77 | –
15 | C[C@]1(c2ccccc2)CC(c2csc(C3CCN(C(=O)Cn4nc(C(F)(F)F)cc4Cl)CC3)n2)=NO1 (racemic) [Compound 261, 2-[5-chloro-3-(trifluoromethyl)-1H-pyrazol-1-yl]-1-[4-[4-[(5R)-4,5-dihydro-5-methyl-5-phenyl-3-isoxazolyl]-2-thiazolyl]-1-piperidinyl]ethanone] | – | – | – | – | – | – | pest or weed control at 10 µg/mL [1, 5]: 100%; pest or weed control at 10 µg/mL [2, 6]: 100%; pest or weed control at 10 µg/mL [3, 7]: 93%
16 | CC(=O)N1N=C(c2csc(C3CCN(C(=O)Cn4nc(C(F)(F)F)cc4C)CC3)n2)OC1c1ccccc1 (stereo not drawn) [Compound 181] | – | – | – | 80 | 100 | 97 | –
17 | Cc1cc(C(F)(F)F)nn1CC(=O)N1CCC(c2nc(C3=NOC(c4ccccn4)C3)cs2)CC1 (stereo not drawn) [Compound 98, 1-[4-[4-(4,5-dihydro-5-(2-pyridinyl)-3-isoxazolyl)-2-thiazolyl]-1-piperidinyl]-2-[5-methyl-3-(trifluoromethyl)-1H-pyrazol-1-yl]ethanone] | – | – | – | – | – | – | pest or weed control at 40 ppm ([1]; Plasmopara, 144 h, * tested at 40 ppm, read-out: Percent Disease Control, Test A): 77%; pest or weed control at 40 ppm [2, 6]: 100%; pest or weed control at 40 ppm [3, 7]: 99%
18 | Cc1cc(C(F)(F)F)nn1CC(=O)N1CCC(c2nc(C3=NOC(N4CCCC4=O)C3)cs2)CC1 (stereo not drawn) [Compound 188] | 99 | 100 | 99 | – | – | – | –
19 | Cc1cc(C(F)(F)F)nn1CC(=O)N1CCC(c2nc(C3=NOC(C)(c4ccccc4)CC3)cs2)CC1 (stereo not drawn) [Compound 29] | – | – | – | 99 | 100 | 99 | –
20 | 1-[4-[4-(4,5-dihydro-5-phenyl-3-isoxazolyl)-2-thiazolyl]-3,6-dihydro-1(2H)-pyridinyl]-2-[5-methyl-3-(trifluoromethyl)-1H-pyrazol-1 yl]ethanone [Compound 217] | – | – | – | 0 | 95 | 86 | –
21 | Cc1cc(C(F)(F)F)nn1CC(=O)N1CCC(c2nc(C3=NOC4(COC(c5ccccc5)OC4)C3)cs2)CC1 (single isomer, unassigned) [Compound 176] | – | – | – | 68 | 100 | 63 | –
22 | Cc1c(C2(C)CC(c3csc(C4CCN(C(=O)Cn5nc(C(F)(F)F)cc5C)CC4)n3)=NO2)sc2cccc(Cl)c12 (stereo not drawn) [Compound 146] | – | – | – | 83 | 100 | 53 | –
23 | O=C(Cn1nc(C(F)(F)F)cc1Cl)N1CCC(c2nc(C3=NO[C@]4(CCCc5ccccc54)C3)cs2)CC1 (racemic) [Compound 230, 2-[5-chloro-3-(trifluoromethyl)-1H-pyrazol-1-yl]-1-[4-[4-[(1′R)-3′,4′-dihydrospiro[isoxazole-5(4H), 1′(2′H)-naphthalen]-3-yl]-2-thiazolyl]-1-piperidinyl]ethanone] | – | – | – | – | – | – | pest or weed control at 10 µg/mL [1, 5]: 100%; pest or weed control at 10 µg/mL [2, 6]: 100%; pest or weed control at 10 µg/mL [3, 7]: 100%
24 | Cc1cc(C(F)(F)F)nn1CC(=O)N1CCC(c2nc(C3=NOC4(CCCC4)C3)cs2)CC1 [Compound 67] | 100 | 100 | 99 | – | – | – | –
25 | Cc1cc(C(F)(F)F)nn1CC(=O)N1CCC(c2nc(-c3cccc(-c4ccccc4)c3)cs2)CC1 [Compound 74] | – | – | – | 50 | 40 | 0 | –
26 | O=C(Cn1nc(C(F)(F)F)cc1C(F)(F)F)N1CCC(c2nc(C3=NO[C@]4(CCc5ccccc54)C3)cs2)CC1 (racemic) [Compound 231, 2-[3,5-bis(trifluoromethyl)-1H-pyrazol-1-yl]-1-[4-[4-[(1R)-2,3-dihydrospiro[1H-indene-1,5′(4′1H)-isoxazol]-3′-yl]-2-thiazolyl]-1-piperidinyl]ethanone] | – | – | – | – | – | – | Percent Disease Control, Test A ([1]; ** tested at l0 ppm): 100%; Percent Disease Control, Test B ([2]; ** tested at l0 ppm): 100%; Percent Disease Control, Test C ([3]; ** tested at l0 ppm): 100%
27 | Cc1cc(C(F)(F)F)nn1CC(=O)N1CCC(c2nc(CN3C(=O)OC(C)(C)C3=O)cs2)CC1 [Compound 208] | – | – | – | 79 | 64 | 0 | –
28 | Cc1cc(C(F)(F)F)nn1CC(=O)N1CCC(c2nc(C3=NOC(N4C(=O)c5ccccc5S4(=O)=O)C3)cs2)CC1 (stereo not drawn) [Compound 236] | 100 | 100 | 100 | – | – | – | –
29 | Cc1cc(C(F)(F)F)nn1CC(=O)N1CCC(c2nc(C3=NOC(c4ccccc4C(F)(F)F)C3)cs2)CC1 (stereo not drawn) [Compound 114] | 100 | 100 | 99 | – | – | – | –
